According to patent publication US12599136B2, “Substituted isophthalic acid diamides and their use as herbicides” (Bayer Aktiengesellschaft, priority 2020, dated 2026):

Experiments:
Format in all cases: in vivo
Abutilon theophrasti [1] = assay: Pre-emergence herbicidal action against ABUTH; conditions: visual score after 3 weeks vs untreated controls
Procedure, shortened: (§1)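 Visual rating at 3 weeks vs untreated pots; 0–100% scale, 100% = plants died. Treatment: aqueous WP/EC spray onto covering soil, 600–800 l/ha, 0.2% wetter, seeds in sandy loam.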

Alopecurus myosuroides [2] = assay: Pre-emergence herbicidal action against ALOMY; conditions: visual score after 3 weeks vs untreated controls
Procedure, shortened: as §1

Amaranthus retroflexus [3] = assay: Pre-emergence herbicidal action against AMARE; conditions: visual score after 3 weeks vs untreated controls
Procedure, shortened: as §1

Avena fatua [4] = assay: Pre-emergence herbicidal action against AVEFA; conditions: visual score after 3 weeks vs untreated controls
Procedure, shortened: as §1

Cyperus esculentus [5] = assay: Pre-emergence herbicidal action against CYPES; conditions: visual score after 3 weeks vs untreated controls
Procedure, shortened: as §1

Echinochloa crus-galli [6] = assay: Pre-emergence herbicidal action against ECHCG; conditions: visual score after 3 weeks vs untreated controls
Procedure, shortened: as §1

Matricaria inodora [7] = assay: Pre-emergence herbicidal action against MATIN; conditions: visual score after 3 weeks vs untreated controls
Procedure, shortened: as §1

Pharbitis purpurea [8] = assay: Pre-emergence herbicidal action against PHBPU; conditions: visual score after 3 weeks vs untreated controls
Procedure, shortened: as §1

Hordeum murinum [9] = assay: Pre-emergence herbicidal action against HORMU; conditions: visual score after 3 weeks vs untreated controls
Procedure, shortened: as §1

Lolium rigidum [10] = assay: Pre-emergence herbicidal action against LOLRI; conditions: 320 g/ha
Procedure, shortened: as §1

Polygonum convolvulus [11] = assay: Pre-emergence herbicidal action against POLCO; conditions: 320 g/ha
Procedure, shortened: as §1

Setaria viridis [12] = assay: Pre-emergence herbicidal action against SETVI
Procedure, shortened: as §1

Stellaria media [13] = assay: Pre-emergence herbicidal action against STEME
Procedure, shortened: as §1

Veronica persica [14] = assay: Pre-emergence herbicidal action against VERPE; conditions: 320 g/ha
Procedure, shortened: as §1

Viola tricolor [15] = assay: Pre-emergence herbicidal action against VIOTR
Procedure, shortened: as §1

Abutilon theophrasti [16] = assay: Post-emergence herbicidal action against ABUTH
Procedure, shortened: (§2)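 Greenhouse pot plants in sandy loam were sprayed at the one-leaf stage, 2 to 3 weeks after sowing, with WP or EC formulations as aqueous suspension or emulsion (600 to 800 l/ha water, 0.2% wetting agent). About 3 weeks later, damage was scored visually against untreated controls as % action (100% = dead, 0% = like control).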

Alopecurus myosuroides [17] = assay: Post-emergence herbicidal action against ALOMY
Procedure, shortened: as §2

Amaranthus retroflexus [18] = assay: Post-emergence herbicidal action against AMARE; conditions: visual assessment about 3 weeks after treatment
Procedure, shortened: as §2

Avena fatua [19] = assay: Post-emergence herbicidal action against AVEFA; conditions: visual assessment about 3 weeks after treatment
Procedure, shortened: as §2

Cyperus esculentus [20] = assay: Post-emergence herbicidal action against CYPES; conditions: 80 g/ha, visual assessment about 3 weeks after treatment
Procedure, shortened: as §2

Echinochloa crus-galli [21] = assay: Post-emergence herbicidal action against ECHCG; conditions: visual assessment about 3 weeks after treatment
Procedure, shortened: as §2

Matricaria inodora [22] = assay: Post-emergence herbicidal action against MATIN; conditions: visual assessment about 3 weeks after treatment
Procedure, shortened: as §2

Pharbitis purpurea [23] = assay: Post-emergence herbicidal action against PHBPU; conditions: visual assessment about 3 weeks after treatment
Procedure, shortened: as §2

Hordeum murinum [24] = assay: Post-emergence herbicidal action against HORMU
Procedure, shortened: as §2

Lolium rigidum [25] = assay: Post-emergence herbicidal action against LOLRI
Procedure, shortened: as §2

Polygonum convolvulus [26] = assay: Post-emergence herbicidal action against POLCO; conditions: 80 g/ha, visual assessment about 3 weeks after treatment
Procedure, shortened: as §2

Setaria viridis [27] = assay: Post-emergence herbicidal action against SETVI; conditions: visual assessment about 3 weeks after treatment
Procedure, shortened: as §2

Stellaria media [28] = assay: Post-emergence herbicidal action against STEME; conditions: visual assessment about 3 weeks after treatment
Procedure, shortened: as §2

Veronica persica [29] = assay: Post-emergence herbicidal action against VERPE; conditions: 80 g/ha, visual assessment about 3 weeks after treatment
Procedure, shortened: as §2

Viola tricolor [30] = assay: Post-emergence herbicidal action against VIOTR
Procedure, shortened: as §2

SMILES: CCN(C)C(=O)c1c(C(F)(F)F)ccc(C(=O)Nc2nnnn2CC)c1Cl [Example 2-124]
- Pre-emergence action against ABUTH (Abutilon theophrasti [1]; 20 g/ha): 100%
- Pre-emergence action against ABUTH (Abutilon theophrasti [1]; 80 g/ha): 100%
- Pre-emergence action against ABUTH (Abutilon theophrasti [1]; Dosage column 320 g/ha (heading prints 3200 g/ha)): 100%
- Pre-emergence action against ALOMY (Alopecurus myosuroides [2]; 80 g/ha): 80%
- Pre-emergence action against ALOMY (Alopecurus myosuroides [2]; 320 g/ha): 90%
- Pre-emergence action against AMARE (Amaranthus retroflexus [3]; 20 g/ha): 90%
- Pre-emergence action against AMARE (Amaranthus retroflexus [3]; 80 g/ha): 100%
- Pre-emergence action against AMARE (Amaranthus retroflexus [3]; 320 g/ha): 100%
- Pre-emergence action against AVEFA (Avena fatua [4]; 80 g/ha): 90%
- Pre-emergence action against AVEFA (Avena fatua [4]; 320 g/ha): 100%
- Pre-emergence action against CYPES (Cyperus esculentus [5]; 20 g/ha): 100%
- Pre-emergence action against CYPES (Cyperus esculentus [5]; 80 g/ha): 100%
- Pre-emergence action against CYPES (Cyperus esculentus [5]; 320 g/ha): 100%
- Pre-emergence action against ECHCG (Echinochloa crus-galli [6]; 80 g/ha): 90%
- Pre-emergence action against ECHCG (Echinochloa crus-galli [6]; 320 g/ha): 100%
- Pre-emergence action against MATIN (Matricaria inodora [7]; 20 g/ha): 80%
- Pre-emergence action against MATIN (Matricaria inodora [7]; 80 g/ha): 90%
- Pre-emergence action against MATIN (Matricaria inodora [7]; 320 g/ha): 100%
- Pre-emergence action against PHBPU (Pharbitis purpurea [8]; 80 g/ha): 80%
- Pre-emergence action against PHBPU (Pharbitis purpurea [8]; 320 g/ha): 90%
- Pre-emergence action against HORMU (Hordeum murinum [9]; 80 g/ha): 80%
- Pre-emergence action against HORMU (Hordeum murinum [9]; 320 g/ha): 90%
- Pre-emergence action against LOLRI (Lolium rigidum [10]): 90%
- Pre-emergence action against POLCO (Polygonum convolvulus [11]): 80%
- Pre-emergence action against SETVI (Setaria viridis [12]; 20 g/ha): 90%
- Pre-emergence action against SETVI (Setaria viridis [12]; 80 g/ha): 100%
- Pre-emergence action against SETVI (Setaria viridis [12]; 320 g/ha): 100%
- Pre-emergence action against STEME (Stellaria media [13]; 20 g/ha): 90%
- Pre-emergence action against STEME (Stellaria media [13]; 80 g/ha): 90%
- Pre-emergence action against STEME (Stellaria media [13]; 320 g/ha): 90%
- Pre-emergence action against VERPE (Veronica persica [14]): 100%
- Pre-emergence action against VIOTR (Viola tricolor [15]; 20 g/ha): 80%
- Pre-emergence action against VIOTR (Viola tricolor [15]; 80 g/ha): 80%
- Pre-emergence action against VIOTR (Viola tricolor [15]; 320 g/ha): 100%
- Post-emergence action against ABUTH (Abutilon theophrasti [16]; 5 g/ha): 100%
- Post-emergence action against ABUTH (Abutilon theophrasti [16]; 20 g/ha): 100%
- Post-emergence action against ABUTH (Abutilon theophrasti [16]; 80 g/ha): 100%
- Post-emergence action against ALOMY (Alopecurus myosuroides [17]; 5 g/ha): 90%
- Post-emergence action against ALOMY (Alopecurus myosuroides [17]; 20 g/ha): 100%
- Post-emergence action against ALOMY (Alopecurus myosuroides [17]; 80 g/ha): 100%
- Post-emergence action against AMARE in % (Amaranthus retroflexus [18]; 5 g/ha): 100%
- Post-emergence action against AMARE in % (Amaranthus retroflexus [18]; 20 g/ha): 100%
- Post-emergence action against AMARE in % (Amaranthus retroflexus [18]; 80 g/ha): 100%
- Post-emergence action against AVEFA in % (Avena fatua [19]; 5 g/ha): 80%
- Post-emergence action against AVEFA in % (Avena fatua [19]; 20 g/ha): 100%
- Post-emergence action against AVEFA in % (Avena fatua [19]; 80 g/ha): 100%
- Post-emergence action against CYPES in % (Cyperus esculentus [20]): 90%
- Post-emergence action against ECHCG in % (Echinochloa crus-galli [21]; 20 g/ha): 100%
- Post-emergence action against ECHCG in % (Echinochloa crus-galli [21]; 80 g/ha): 100%
- Post-emergence action against MATIN in % (Matricaria inodora [22]; 5 g/ha): 90%
- Post-emergence action against MATIN in % (Matricaria inodora [22]; 20 g/ha): 100%
- Post-emergence action against MATIN in % (Matricaria inodora [22]; 80 g/ha): 100%
- Post-emergence action against PHBPU in % (Pharbitis purpurea [23]; 5 g/ha): 80%
- Post-emergence action against PHBPU in % (Pharbitis purpurea [23]; 20 g/ha): 90%
- Post-emergence action against PHBPU in % (Pharbitis purpurea [23]; 80 g/ha): 90%
- Post-emergence action against HORMU in % (Hordeum murinum [24]; 20 g/ha): 90%
- Post-emergence action against HORMU in % (Hordeum murinum [24]; 80 g/ha): 100%
- Post-emergence action against LOLRI in % (Lolium rigidum [25]; 20 g/ha): 90%
- Post-emergence action against LOLRI in % (Lolium rigidum [25]; 80 g/ha): 100%
- Post-emergence action against POLCO in % (Polygonum convolvulus [26]): 100%
- Post-emergence action against SETVI in % (Setaria viridis [27]; 5 g/ha): 100%
- Post-emergence action against SETVI in % (Setaria viridis [27]; 20 g/ha): 100%
- Post-emergence action against SETVI in % (Setaria viridis [27]; 80 g/ha): 100%
- Post-emergence action against STEME in % (Stellaria media [28]; 5 g/ha): 100%
- Post-emergence action against STEME in % (Stellaria media [28]; 20 g/ha): 100%
- Post-emergence action against STEME in % (Stellaria media [28]; 80 g/ha): 100%
- Post-emergence action against VERPE in % (Veronica persica [29]): 100%
- Post-emergence action against VIOTR in % (Viola tricolor [30]; 5 g/ha): 100%
- Post-emergence action against VIOTR in % (Viola tricolor [30]; 20 g/ha): 100%
- Post-emergence action against VIOTR in % (Viola tricolor [30]; 80 g/ha): 100%
